From patent US10919896B2, “Preparation and uses of pyrimidinone derivatives” (Cancer Research Technology Limited, priority 2016, dated 2021)

These compounds were tested against Cdc7/ASK (Homo sapiens, UniProt O00311) (assay: Cdc7 Biochemical Assay Method 1: 384 well ELISA, whole protein substrate MCM2, antibody against Phospho MCM2 (S53)). Conditions: 2 μM ATP, read-out: Biochemical Method 1 (pIC50) (converted).
Chain of Cdc7/ASK (O00311 whole entry): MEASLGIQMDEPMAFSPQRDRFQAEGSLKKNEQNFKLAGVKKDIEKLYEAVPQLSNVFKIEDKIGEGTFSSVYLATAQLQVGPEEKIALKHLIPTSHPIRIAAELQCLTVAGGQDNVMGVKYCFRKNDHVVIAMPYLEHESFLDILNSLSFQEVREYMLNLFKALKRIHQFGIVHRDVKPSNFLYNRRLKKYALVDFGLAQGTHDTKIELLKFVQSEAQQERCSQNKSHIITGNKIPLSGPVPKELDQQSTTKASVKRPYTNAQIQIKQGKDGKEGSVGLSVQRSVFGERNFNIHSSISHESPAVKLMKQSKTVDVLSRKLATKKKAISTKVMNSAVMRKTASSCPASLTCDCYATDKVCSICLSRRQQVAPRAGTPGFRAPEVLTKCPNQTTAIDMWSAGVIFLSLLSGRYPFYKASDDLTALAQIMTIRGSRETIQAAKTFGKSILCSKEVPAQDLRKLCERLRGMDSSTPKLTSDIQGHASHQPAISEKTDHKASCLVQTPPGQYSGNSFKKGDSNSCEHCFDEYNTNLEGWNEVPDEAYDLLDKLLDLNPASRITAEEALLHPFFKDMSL
Chain of Cdc7/ASK (Q9UBU7 whole entry partner): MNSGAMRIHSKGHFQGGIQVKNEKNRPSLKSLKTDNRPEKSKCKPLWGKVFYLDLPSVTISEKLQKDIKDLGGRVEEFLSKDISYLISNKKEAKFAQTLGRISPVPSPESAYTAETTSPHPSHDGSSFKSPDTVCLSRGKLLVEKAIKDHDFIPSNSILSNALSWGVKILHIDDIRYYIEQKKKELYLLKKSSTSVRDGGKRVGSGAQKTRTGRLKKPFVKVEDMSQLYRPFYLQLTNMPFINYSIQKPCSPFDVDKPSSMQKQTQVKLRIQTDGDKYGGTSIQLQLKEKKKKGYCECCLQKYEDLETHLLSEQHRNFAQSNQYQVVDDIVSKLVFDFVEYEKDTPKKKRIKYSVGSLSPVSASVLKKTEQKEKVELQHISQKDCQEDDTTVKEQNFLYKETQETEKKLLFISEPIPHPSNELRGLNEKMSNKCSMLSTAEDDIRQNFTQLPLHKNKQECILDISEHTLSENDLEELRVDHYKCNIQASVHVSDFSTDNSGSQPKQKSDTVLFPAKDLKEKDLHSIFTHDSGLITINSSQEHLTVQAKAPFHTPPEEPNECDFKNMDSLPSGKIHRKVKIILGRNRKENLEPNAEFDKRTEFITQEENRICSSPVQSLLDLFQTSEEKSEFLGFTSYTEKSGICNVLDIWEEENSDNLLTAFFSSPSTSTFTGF
Set-up: purchased
Procedure, shortened: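 MCM2 protein substrate was coated on nickel-chelate plates, then Cdc7/ASK was added with 2 μM ATP in 50 mM Tris-HCl pH 8.5, 10 mM MgCl2, 1 mM DTT, 4% DMSO, 90 min at room temperature. Phospho-MCM2 (S53) was detected by ELISA with an AP secondary and PNPP absorbance. IC50 was derived from % inhibition versus no-compound and no-enzyme controls.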
For NC[C@@H]1CCCN(c2nc(-c3ccnc(F)c3)[nH]c(=O)c2Cl)C1 [Compound 363], the IC50 was 4.68 nM. Compound C[C@@H]1CNCCN1c1nc(-c2ccncc2)[nH]c(=O)c1Cl [Compound 364] has an IC50 of 0.389 nM. For O=c1[nH]c(-c2ccnc(F)c2)nc(N2CCOCC2)c1Cl [Compound 316], the IC50 was 1.32 nM. NC[C@H]1CCCN(c2nc(-c3ccnc(F)c3)[nH]c(=O)c2Cl)C1 [Compound 362] showed an IC50 of 1.66 nM. In the case of C[C@H]1CN(c2nc(-c3ccncc3)[nH]c(=O)c2Cl)CCN1 [Compound 130], the IC50 is reported as 2.57 nM. Work on O=c1[nH]c(-c2ccncc2)nc(N2CCN[C@H](C(F)(F)F)C2)c1Cl [Compound 139] yielded an IC50 of 9.55 nM. In the case of O=c1[nH]c(-c2ccnc(F)c2)nc(N2CCN[C@@H](C(F)(F)F)C2)c1Cl [Compound 314], the IC50 is reported as 1.12 nM. O=c1[nH]c(-c2ccnc(F)c2)nc(N2CCNCC2)c1Cl [Compound 360] gave an IC50 of 1.51 nM. CC(C)[C@H]1CN(c2nc(-c3ccncc3)[nH]c(=O)c2F)CCN1 [Compound 308] showed an IC50 of 0.794 nM. O=c1[nH]c(-c2ccnc(F)c2)nc(N2CCCC(F)(F)C2)c1Cl [Compound 90, 5-chloro-4-(3,3-difluoro-1-piperidyl)-2-(2-fluoro-4-pyridyl)-1H-pyrimidin-6-one] was tested, and the IC50 was 0.851 nM. Compound O=c1[nH]c(-c2ccncc2)nc(N2CCN[C@@H](C(F)(F)F)C2)c1Cl [Compound 180] has an IC50 of 1.45 nM. With CC(C)(C)[C@H]1CN(c2nc(-c3ccncc3)[nH]c(=O)c2F)CCN1 [Compound 185] the IC50 was 0.776 nM. With O=c1[nH]c(-c2ccncc2)nc(N2CCN(CC(F)F)CC2)c1Cl [Compound 147] the IC50 was 4.27 nM. O=c1[nH]c(-c2ccncc2)nc(N2CCCOCC2)c1Cl [Compound 186] showed an IC50 of 3.09 nM. CC(C)[C@H]1CN(c2nc(-c3ccnc(F)c3)[nH]c(=O)c2Cl)CCN1 [Compound 170] was tested, and the IC50 was 1.1 nM.
